Converted amounts (≈) assume the structure as drawn.
Experiments:
Aleurodicus dispersus [1] = assay: Insecticidal activity against third-instar nymph stage of Aleurodicus dispersus in guava plant leaves assessed as mortality at 2 mg/l measured after 9 days in presence of 10^8 Beauveria bassiana conidial suspension under laboratory conditions (reference value: 45.7 +/-3.18%); type: functional; conditions: 216 h
Aleurodicus dispersus [2] = assay: Insecticidal activity against third-instar nymph stage of Aleurodicus dispersus in guava plant leaves assessed as mortality at 2 mg/L applied via hand sprayer measured after 9 days under field conditions (reference value: 4%); type: functional; conditions: 216 h
Aleurodicus dispersus [3] = assay: Insecticidal activity against third-instar nymph stage of Aleurodicus dispersus in guava plant leaves assessed as mortality at 8 mg/l measured after 3 days under laboratory conditions (reference value: 2%); type: functional; conditions: 72 h
Aleurodicus dispersus [4] = assay: Insecticidal activity against third-instar nymph stage of Aleurodicus dispersus in guava leaves assessed as mortality treated for 15 s measured at 27 +/-2 degC after 48 hr; type: functional
Aleurodicus dispersus [5] = assay: Insecticidal activity against third-instar nymph stage of Aleurodicus dispersus in guava plant leaves assessed as mortality at 2 mg/L applied via hand sprayer measured after 6 days in presence of 10^8 Beauveria bassiana conidial suspension under field conditions (reference value: 26.9 +/-3.04%); type: functional; conditions: 144 h
Aleurodicus dispersus [6] = assay: Insecticidal activity against third-instar nymph stage of Aleurodicus dispersus in guava leaves assessed as mortality at 20 mg/l treated for 15 s measured at 27 +/-2 degC after 24 hr (reference value: 2%); type: functional
Aleurodicus dispersus [7] = assay: Insecticidal activity against third-instar nymph stage of Aleurodicus dispersus in guava plant leaves assessed as mortality at 2 mg/l measured after 3 days under laboratory conditions (reference value: 2%); type: functional; conditions: 72 h
Aleurodicus dispersus [8] = assay: Insecticidal activity against third-instar nymph stage of Aleurodicus dispersus in guava plant leaves assessed as mortality at 8 mg/l measured after 6 days under laboratory conditions (reference value: 3%); type: functional; conditions: 144 h
Aleurodicus dispersus [9] = assay: Insecticidal activity against third-instar nymph stage of Aleurodicus dispersus in guava plant leaves assessed as mortality at 8 mg/L applied via hand sprayer measured after 3 days under field conditions (reference value: 3%); type: functional; conditions: 72 h
Aleurodicus dispersus [10] = assay: Insecticidal activity against third-instar nymph stage of Aleurodicus dispersus in guava leaves assessed as mortality at 40 mg/l treated for 15 s measured at 27 +/-2 degC after 24 hr (reference value: 2%); type: functional
Aleurodicus dispersus [11] = assay: Insecticidal activity against third-instar nymph stage of Aleurodicus dispersus in guava plant leaves assessed as mortality at 2 mg/l measured after 9 days under laboratory conditions (reference value: 3%); type: functional; conditions: 216 h
Aleurodicus dispersus [12] = assay: Insecticidal activity against third-instar nymph stage of Aleurodicus dispersus in guava leaves assessed as mortality at 2.5 mg/l treated for 15 s measured at 27 +/-2 degC after 48 hr (reference value: 3%); type: functional
Beauveria bassiana [13] = assay: Inhibition of Beauveria bassiana Bb-N1 mycelial growth at 10 mg/L measured at 27 +/-2 degC after 10 days (reference value: 2.4 +/-0.19%); type: organism-based; parameters: scale not given: the % may be the effect or the level left; conditions: in vivo, 240 h
Aleurodicus dispersus [14] = assay: Insecticidal activity against third-instar nymph stage of Aleurodicus dispersus in guava plant leaves assessed as mortality at 2 mg/L applied via hand sprayer measured after 3 days in presence of 10^8 Beauveria bassiana conidial suspension under field conditions (reference value: 22.2 +/-3.15%); type: functional; conditions: 72 h
Aleurodicus dispersus [15] = assay: Insecticidal activity against third-instar nymph stage of Aleurodicus dispersus in guava plant leaves assessed as mortality at 2 mg/l measured after 6 days under laboratory conditions (reference value: 3%); type: functional; conditions: 144 h
Aleurodicus dispersus [16] = assay: Insecticidal activity against third-instar nymph stage of Aleurodicus dispersus in guava plant leaves assessed as mortality at 8 mg/L applied via hand sprayer measured after 9 days in presence of 10^8 Beauveria bassiana conidial suspension under field conditions (reference value: 42.3 +/-3.58%); type: functional; conditions: 216 h
Aleurodicus dispersus [17] = assay: Insecticidal activity against third-instar nymph stage of Aleurodicus dispersus in guava plant leaves assessed as mortality at 4 mg/l measured after 3 days under laboratory conditions (reference value: 2%); type: functional; conditions: 72 h
Aleurodicus dispersus [18] = assay: Insecticidal activity against third-instar nymph stage of Aleurodicus dispersus in guava leaves assessed as mortality at 10 mg/l treated for 15 s measured at 27 +/-2 degC after 48 hr (reference value: 3%); type: functional
Beauveria bassiana [19] = assay: Effect on Beauveria bassiana Bb-N1 conidial germination at 4 mg/L measured at 27 +/-2 degC after 24 hr (reference value: 94.85 +/-2.13%); type: ADME, organism-based; conditions: in vivo
Beauveria bassiana [20] = assay: Effect on Beauveria bassiana Bb-N1 conidial production at <8 mg/L measured at 27 +/-2 degC after 10 days; type: ADME, organism-based; conditions: in vivo, 240 h
Aleurodicus dispersus [21] = assay: Insecticidal activity against third-instar nymph stage of Aleurodicus dispersus in guava plant leaves assessed as mortality at 2 mg/L applied via hand sprayer measured after 6 days under field conditions (reference value: 3.5%); type: functional; conditions: 144 h
Beauveria bassiana [22] = assay: Inhibition of Beauveria bassiana Bb-N1 mycelial growth at 2 mg/L measured at 27 +/-2 degC after 10 days (reference value: 2.4 +/-0.19%); type: organism-based; parameters: scale not given: the % may be the effect or the level left; conditions: in vivo, 240 h
Aleurodicus dispersus [23] = assay: Insecticidal activity against third-instar nymph stage of Aleurodicus dispersus in guava plant leaves assessed as mortality at 4 mg/l measured after 6 days in presence of 10^8 Beauveria bassiana conidial suspension under laboratory conditions (reference value: 32.8 +/-2.39%); type: functional; conditions: 144 h
Aleurodicus dispersus [24] = assay: Insecticidal activity against third-instar nymph stage of Aleurodicus dispersus in guava leaves assessed as mortality at 2.5 mg/l treated for 15 s measured at 27 +/-2 degC after 24 hr (reference value: 2%); type: functional
Aleurodicus dispersus [25] = assay: Insecticidal activity against third-instar nymph stage of Aleurodicus dispersus in guava plant leaves assessed as mortality at 4 mg/L applied via hand sprayer measured after 9 days in presence of 10^8 Beauveria bassiana conidial suspension under field conditions (reference value: 42.3 +/-3.58%); type: functional; conditions: 216 h
Aleurodicus dispersus [26] = assay: Insecticidal activity against third-instar nymph stage of Aleurodicus dispersus in guava plant leaves assessed as mortality at 2 mg/l measured after 6 days in presence of 10^8 Beauveria bassiana conidial suspension under laboratory conditions (reference value: 32.8 +/-2.39%); type: functional; conditions: 144 h
Aleurodicus dispersus [27] = assay: Insecticidal activity against third-instar nymph stage of Aleurodicus dispersus in guava plant leaves assessed as mortality at 4 mg/l measured after 6 days under laboratory conditions (reference value: 3%); type: functional; conditions: 144 h
Aleurodicus dispersus [28] = assay: Insecticidal activity against third-instar nymph stage of Aleurodicus dispersus in guava leaves assessed as mortality at 10 mg/l treated for 15 s measured at 27 +/-2 degC after 24 hr (reference value: 2%); type: functional
Aleurodicus dispersus [29] = assay: Insecticidal activity against third-instar nymph stage of Aleurodicus dispersus in guava plant leaves assessed as mortality at 8 mg/l measured after 3 days in presence of 10^8 Beauveria bassiana conidial suspension under laboratory conditions (reference value: 24.3 +/-1.03%); type: functional; conditions: 72 h

CC1(C)[C@H](C=C(Cl)Cl)[C@H]1C(=O)O[C@@H](C#N)c1cccc(Oc2ccccc2)c1 [BETA-CYPERMETHRIN]
mortality at 2 µg/mL (Aleurodicus dispersus [1]): 75.3%
mortality at 2 µg/mL (Aleurodicus dispersus [2]): 20.9%
mortality at 8 µg/mL (Aleurodicus dispersus [3]): 39.3%
LC95 (Aleurodicus dispersus [4]): 1768.57 µg/mL (≈ 4250 µM)
LC50 (Aleurodicus dispersus [4]; Aleurodicus dispersus, Nymph stage, 48 h): 18.4 µg/mL (≈ 44.1 µM)
mortality at 2 µg/mL (Aleurodicus dispersus [5]): 50.9%
mortality at 20 µg/mL (Aleurodicus dispersus [6]): 34.5%
mortality at 2 µg/mL (Aleurodicus dispersus [7]): 28.7%
mortality at 8 µg/mL (Aleurodicus dispersus [8]): 39.3%
mortality at 8 µg/mL (Aleurodicus dispersus [9]): 29.4%
mortality at 40 µg/mL (Aleurodicus dispersus [10]): 46.6%
mortality at 2 µg/mL (Aleurodicus dispersus [11]): 28.7%
mortality at 2.5 µg/mL (Aleurodicus dispersus [12]): 25.2%
Activity (Beauveria bassiana [13]): 8.2%
mortality at 2 µg/mL (Aleurodicus dispersus [14]): 32.3%
mortality at 2 µg/mL (Aleurodicus dispersus [15]): 28.7%
mortality at 8 µg/mL (Aleurodicus dispersus [16]): 63.7%
mortality at 4 µg/mL (Aleurodicus dispersus [17]): 34.1%
mortality at 10 µg/mL (Aleurodicus dispersus [18]): 47.8%
germination rate (Beauveria bassiana [19]): 93.15%
Activity (Beauveria bassiana [20]): Non-toxic
mortality at 2 µg/mL (Aleurodicus dispersus [21]): 20.9%
Activity (Beauveria bassiana [22]): 2.7%
mortality at 4 µg/mL (Aleurodicus dispersus [23]): 77.6%
mortality at 2.5 µg/mL (Aleurodicus dispersus [24]): 9.1%
mortality at 4 µg/mL (Aleurodicus dispersus [25]): 62.4%
mortality at 2 µg/mL (Aleurodicus dispersus [26]): 75.3%
mortality at 4 µg/mL (Aleurodicus dispersus [27]): 34.1%
mortality at 10 µg/mL (Aleurodicus dispersus [28]): 23.1%
mortality at 8 µg/mL (Aleurodicus dispersus [29]): 76.1%
